From patent US12673056B2, “Oral formulation comprising a crystalline form of rabeximod” (Cyxone AB, priority 2020, dated 2026)

How the values were obtained:
[1] = Particle size by laser diffractometry (Malvern Mastersizer) following micronisation; format: physicochemical; settings: for Feed particles % <10 μm: before micronisation; for % <10 μm / D(0.1) / D(0.5) / D(0.9): result after micronisation
Description: In a still further embodiment the composition comprises rabeximod in the form of a dry powder, e.g. a micronized powder. The particle size distribution can be determined by means of laser diffractometry. In a preferred embodiment, a Malvern Instru-ments Mastersizer is used to determine the particle size distribution. Using a Malvern Mastersizer apparatus, volume-based size distribution parameters will typically be re-ported, e.g. in the form of the D10, D50 and D90 values. The average particle size (D50-value), which is also denoted D50-value of the integral volume distribution, is defined in the context of this invention as the particle diameter at which 50 percent by volume of the particles have a smaller diameter than the diameter which corresponds to the D50-value. Likewise, 50 percent by volume of the particles have a larger diameter than the D50-value. Analogously, the D90-value of the integral volume distribution is defined as the particle diameter at which 90 percent by volume of the particles have a smaller diameter than the diameter which corresponds to the D90-value. Corre-spondingly, the D10-value of the integral volume distribution is defined as the particle diameter at which 10 percent by volume of the particles have a smaller diameter than the diameter which corresponds to the D10-value. Typically, in accordance with the present invention, the Rabeximod (micronized) dry powder has a particle size characterized by a D10 within the range of 0.5-1.0 μm, a D50 within the range of 1.5-3.5 μm, and/or a D90 within the range of 5.5-9.9 μm, when measured using laser light diffractometry.
The micronisation operation is performed using a standard jet-mill. The set point for the particle size was that not less than 90% of the particles should be smaller than 10 μm. In-process samples were drawn and analyzed using a Malvern Mastersizer during the process to verify that a sufficient size reduction had been achieved (Malvern Mastersizer 2000 instrument, equipped with a Scirocco 2000(A) dispersion unit and a Micro Tray, operated at 2.5 bar, a feed rate of 60%, a measuring time of 5 seconds and a background time of 5 second; compliant with Ph.Fur method 2.9.31).
Results of the micronisation step in particle size is provided in Table 1 for Rabeximod drug substance batches.

[2] = system: patients diagnosed with active RA; experiment: Phase II clinical trial in combination with stable dose of methotrexate; format: in vivo, human
Description: A total of 225 patients diagnosed with active RA based on the American Rheu-matism Association (ARA) revised criteria were randomized to receive one of the following treatments: • 6.25 mg of Rabeximod (daily) • 15 mg of Rabeximod (daily) • 37.5 mg of Rabeximod (daily) • Placebo
Study drug was provided in the form of a capsule comprising micronized rabeximod, as described in the preceding sections. Placebo was provided in the form of a capsule identical in appearance to the study drug formulation. In all treatment groups patients were required to continue taking a stable dose of methotrexate. Over 200 patients completed the study. During the study, safety, efficacy and pharmaco-kinetic/pharmacodynamic properties of the study drug formulation were assessed with appropriate tests.

healthy male volunteers = experiment: Phase 1 clinical trial: safety, tolerability, pharmacokinetics of single and multiple oral rising doses; format: in vivo, human
Description: The Phase 1 study assessed the safety, tolerability, pharmacokinetics and pharmacodynamics of single and multiple oral rising doses of Rabeximod (in a capsule formulation as described in the preceding sections) in healthy male volunteers. The study also included an open-label, randomised, two-period crossover part that was designed to investigate the effect of food on the pharmacokinetics of Rabeximod. In total, 87 healthy male subjects were enrolled into the study.

Structure (SMILES)	Feed particles % <10 μm [1] [%]	% <10 μm [1] [%]	D(0.1) [1] [μm]	D(0.5) [1] [μm]	D(0.9) [1] [μm]	most optimal treatment based on the efficacy and safety results ([2]; 15 mg daily)	effects for key secondary endpoints of treatment ([2]; 6.25, 15 or 37.5 mg daily with methotrexate, p<0.05)	predicted increase of AUC0-t and Cmax for a doubling in dose ([2]; Power Model, dose range 6.25 to 37.5 mg, patients with moderate or severe RA, on average) [fold]	kinetics with respect to time (accumulation in plasma consistent with t1/2) ([2]; repeated oral administration)	time plasma concentrations measurable post dose (healthy male volunteers; on average, following repeated once daily dosing (Day 14))	increase of systemic exposure (AUC0-t) with dose (healthy male volunteers; repeated once daily administration)	increase of systemic exposure (AUC0-t) with dose (healthy male volunteers; single administration at 12.5 mg to 600 mg)	tolerability, higher doses (healthy male volunteers; single dose of 600 mg, and multiple dose of 600 mg loading followed by 100 mg)	tolerability, single doses (healthy male volunteers; single oral doses up to 400 mg)	tolerability, multiple oral doses (healthy male volunteers; up to a 200 mg loading dose followed by 50 mg maintenance dose)
Cc1cc2nc3c4cc(Cl)ccc4n(CC(=O)NCCN(C)C)c3nc2cc1C [146-32]	41.9	98.1	0.7	2.2	8.2										
Cc1cc2nc3c4cc(Cl)ccc4n(CC(=O)NCCN(C)C)c3nc2cc1C [262-1]	29.0	94.5	0.7	2.2	8.4										
Cc1cc2nc3c4cc(Cl)ccc4n(CC(=O)NCCN(C)C)c3nc2cc1C [262-2]	32.6	92.6	0.7	2.2	7.6										
Cc1cc2nc3c4cc(Cl)ccc4n(CC(=O)NCCN(C)C)c3nc2cc1C [Rabeximod, 9-Chloro-2,3-dimethyl-6-(N,N-dimethylaminoethylamino-2-oxoethyl)-6H-indolo-[2,3b]quinoxaline]						most optimal	therapeutically meaningful and statistically significant	2	linear with respect to time	up to 168 hours	trend was also noted	approximately dose-proportional	less well tolerated due to phototoxicity reactions	well tolerated	well tolerated
Cc1cc2nc3c4cc(Cl)ccc4n(CC(=O)NCCN(C)C)c3nc2cc1C [compound 149]	30.9	99.1	0.6	2.0	5.9										
Cc1cc2nc3c4cc(Cl)ccc4n(CC(=O)NCCN(C)C)c3nc2cc1C [compound 153]	32.7	99.1	0.6	1.9	5.7										
